This note sets out measurements from US20060094786A1, “Treating syndrome X with substituted tetralins and indanes” (priority 2002, published 2006).

In assay [1] the target is T1, PPARα (Rattus norvegicus, UniProt P37230).
T1 construct: H4IIE rat hepatoma cell line was obtained from ATCC; host or cells: H4IIE rat hepatoma cells
T1 sequence (P37230 1-468): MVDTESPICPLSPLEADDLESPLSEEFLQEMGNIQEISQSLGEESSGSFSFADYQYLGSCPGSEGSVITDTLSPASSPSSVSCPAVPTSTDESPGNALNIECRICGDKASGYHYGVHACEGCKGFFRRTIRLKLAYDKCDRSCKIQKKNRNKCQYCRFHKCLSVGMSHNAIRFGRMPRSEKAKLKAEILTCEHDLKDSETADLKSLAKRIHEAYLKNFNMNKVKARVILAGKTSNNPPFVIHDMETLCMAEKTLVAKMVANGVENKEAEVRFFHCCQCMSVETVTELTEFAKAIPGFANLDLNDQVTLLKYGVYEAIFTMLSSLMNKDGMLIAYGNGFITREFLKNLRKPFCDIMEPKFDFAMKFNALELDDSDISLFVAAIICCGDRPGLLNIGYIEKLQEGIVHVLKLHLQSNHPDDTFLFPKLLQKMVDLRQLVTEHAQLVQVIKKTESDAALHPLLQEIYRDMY
In words: HD bDNA Assay (HD gene induction, H4IIE rat hepatoma cell line). The following applies: assay not named, values equal the PPARα column. The format is cell-based. How it is done:
H4IIE rat hepatoma cell line was obtained from ATCC. Cells were cultured in 175 cm^2 tissue culture flask or seeded in 96-well plate with (high serum content, 10% fetal bovine serum and 10% calf serum) culture medium and maintained at 37° C. and 5% CO2 throughout study. Twenty-four hours after the initial seeding of the 96-well plate by hand (approximate 100,000/well), the HD gene induction assay was initiated. Media was removed and replaced with 100 ul of low serum culture media (5% charcoal/dextran treated calf serum) containing vehicle (DMSO) or test compounds or standard. Cells returned to incubator for 24 hours culture. At the termination of the challenge, 50 ul lysis buffer with HD gene specific CE, LE, BL probes was added directly into each well to initiate the is bDNA HD mRNA assay. The branched DNA assay was performed according to the manufacturer's protocol (Bayer Diagnostics; Emeryville. Calif.). At the end of the assay, the luminescence was quantitated in Dynex MLX microtiter plate luminometer. EC50's were determined by non-linear regression with a sigmoidal fit utilizing Graphpad Prism.

Assay [2] addresses T2, PPARδ (Homo sapiens, UniProt Q03181).
T2 sequence (Q03181 171-441 limits assumed): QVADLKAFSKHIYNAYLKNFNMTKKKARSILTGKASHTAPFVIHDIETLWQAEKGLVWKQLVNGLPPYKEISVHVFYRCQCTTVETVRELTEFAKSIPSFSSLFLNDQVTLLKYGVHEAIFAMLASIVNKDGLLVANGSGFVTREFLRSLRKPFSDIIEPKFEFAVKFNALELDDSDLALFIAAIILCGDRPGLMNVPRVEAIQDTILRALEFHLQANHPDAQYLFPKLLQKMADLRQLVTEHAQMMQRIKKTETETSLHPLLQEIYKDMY
In words: Transfection Assay for PPARδ Receptors (PPAR-Gal4 receptor / Gal4-Luciferase Reporter, HEK293 cells). The format is cell-based. Conditions: for PPARδ FI: fold induction, unbracketed values, PPARδ standard FI = 36.1. How it is done:
Transfection Assay for PPARδ Receptors
HEK293 cells were grown in DMEM/F-12 Media supplemented with 10% FBS and glutamine (GIBCOBRL). The cells were co-transfected with DNA for PPAR-Gal4 receptor and Gal4-Luciferase Reporter using the DMRIE-C Reagent. On the following day, the DNA-containing medium were replaced with 5% Charcoal treated FBS growth medium. After six hours, cells were seeded in 96 well plate and incubated at 37° C. in CO2 incubator overnight. Cells were challenged by test compounds and incubated for 24 hours at 37° C. in 5% CO2 incubator. Luciferase activity was assayed using the Steady-Glo Luciferase Assay Kit from Promega. DMRIE-C Reagent was purchased from GIBCO Cat. No. 10459-014. OPTI-MEM I Reduced Serum Medium was purchased from GIBCO Cat. No. 31985. Steady-Glo Luciferase Assay Kit was obtained from Promega Part# E254B.
On the technique in general: Reporter assays use an easily measured gene product as a stand-in for the process of interest.

The target in assay [3] is T3, PPARγ (Homo sapiens, UniProt P37231).
T3 construct: Following the challenge of the preadipocytes, cells may be lysed with lysis buffer; endogenous in cells; host or cells: preadipocytes
T3 sequence (P37231 1-505): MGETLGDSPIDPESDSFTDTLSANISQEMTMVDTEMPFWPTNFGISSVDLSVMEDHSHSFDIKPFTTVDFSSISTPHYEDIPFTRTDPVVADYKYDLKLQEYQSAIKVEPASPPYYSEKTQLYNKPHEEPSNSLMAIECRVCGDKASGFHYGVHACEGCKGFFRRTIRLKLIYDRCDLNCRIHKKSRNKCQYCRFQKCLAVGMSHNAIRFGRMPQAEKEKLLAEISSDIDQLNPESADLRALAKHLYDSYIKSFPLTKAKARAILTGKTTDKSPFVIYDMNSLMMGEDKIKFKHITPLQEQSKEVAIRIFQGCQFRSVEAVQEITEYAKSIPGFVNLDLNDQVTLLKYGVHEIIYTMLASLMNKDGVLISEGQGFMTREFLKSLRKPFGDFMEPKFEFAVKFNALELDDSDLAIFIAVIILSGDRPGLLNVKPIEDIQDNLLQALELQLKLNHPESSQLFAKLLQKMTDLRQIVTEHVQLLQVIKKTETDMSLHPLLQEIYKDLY
In words: aP2 Assay for PPAR Gamma Agonists (bDNA aP2 mRNA, preadipocytes). The format is cell-based. The following applies: for PPARγ FI: fold induction, unbracketed values, PPARγ standard FI = 70.3. From the text:
aP2 Assay for PPAR Gamma Agonists
The procedure is described in detail in Burris et al., Molecular Endocrinology 1999, 13:410, which is hereby incorporated by reference in its entirety, and aP2 assay results of agonist intrinsic activity may be presented as fold increase over vehicle in induction of aP2 mRNA production.
Twenty-four hours after the initial seeding of the 96-well plates by hand (around 20,000/well), the differentiation assay may be initiated. Medium may be removed and replaced with 150 μl of differentiation medium containing vehicle (DMSO) or test compounds. Cells may be returned to incubator for 24 hours culture. At the termination of the challenge, medium may be removed and 100 ul of lysis buffer may be added to initiate the bDNA aP2 mRNA assay. The branched DNA assay may be performed according to the manufacturer's protocol (Bayer Diagnostics; Emeryville, Calif.). Result may be expressed as the fold increase of aP2 mRNA production activated over vehicle controls. EC50's and Emax may be determined by non-linear regression with a sigmoidal fit curve.
Following the challenge of the preadipocytes, cells may be lysed with lysis buffer (Bayer Diagnostics) containing the aP2 oligonucleotides. After a 15 minute incubation at 53° C. or 30 minutes at 37° C. incubator, 70 ul of the lysis buffer from each well may be added to a corresponding capture well (preincubated with 70 ul of blocking buffer (Bayer Diagnostics)). The capture plate may be incubated overnight at 53° C. in a plate incubator (Bayer Diagnostics). After this incubation, the bDNA and labeled probes may be annealed as directed by the manufacturer. Following a 30-minute incubation with the luminescent alkaline phosphatase substrate, dioxitane, the luminescence may be quantitated in a Dynex MLX microtiter plate luminometer. Oligonucleotide probes designed to anneal to the aP2 mRNA and function in the bDNA mRNA detection system are designed with ProbeDesigner software (Bayer Diagnostics). This software package analyzes a target sequence of interest with a series of algorithms in order to determine which regions of the sequence can perform as locations for capture, label, or spacer probe annealing. The sequences of the oligonucleotides are as follows: […]

Assay [4] is described as follows: Comparison of activity of (R) and (S) isomer (test not stated). The following applies: chiral center on C-2 of the indane ring. An excerpt: Unless otherwise mentioned or indicated, the chemical designation of compounds denotes the mixture of all possible stereochemically isomeric forms, said mixtures containing all diastereomers and enantiomers of the basic molecular structure. More in particular, stereogenic centers may have the (R)- or (S)-configuration; substituents on bivalent cyclic saturated radicals may have either the cis- or trans-configuration. The invention encompasses stereochemically isomeric forms including diastereoisomers, as well as mixtures thereof in any proportion of the disclosed compounds. The disclosed compounds may also exist in their tautomeric forms. Such forms although not explicitly indicated in the above and following formulae are intended to be included within the scope of the present invention. For example, in compound 2.1 or Example 3, there is a chiral center on the C-2 of the indane ring.

As to `CCN(C(=O)Nc1ccc(OC(F)(F)F)cc1)[C@@H]1Cc2ccc(SC(C)(C)C(=O)O)cc2C1` [Example 3, (R)-2-{2-[1-Ethyl-3-(4-trifluoromethoxyphenyl)ureido]indan-5-ylsulfanyl}-2-methylpropionic acid], the EC50 in assay [1] is 0.008 µM; in assay [2] (bracketed values), more than 10 µM; in assay [3] (bracketed values), more than 10 µM. Besides, in assay [4], the “activity of the (R) isomer relative to the (S) isomer” value is reported as “more active than the (S) isomer”.

Consider `CCN(C(=O)Nc1ccc(C(C)C)cc1)C1Cc2ccc(SC(C)(C)C(=O)O)cc2C1` (stereo not drawn) [Example 6, 2-{2-[1-Ethyl-3-(4-isopropylphenyl)ureido]indan-5-ylsulfanyl}-2-methylpropionic acid], for which the “PPARδ FI” value in assay [2] is reported as 3.6. The “PPARγ FI” value in assay [3] came out at 1.9.

Take `CCN(C(=O)Nc1ccc(N(C)C)cc1)C1Cc2ccc(SC(C)(C)C(=O)O)cc2C1` (stereo not drawn) [Example 7, 2-{2-[3-(4-Dimethylaminophenyl)-1-ethylureido]indan-5-ylsulfanyl}-2-methylpropionic acid]: the “PPARδ FI” value in assay [2] was determined as 0.8. Besides, the “PPARγ FI” value in assay [3] was 0.

Regarding `CCCCCN(C(=O)Nc1ccc(OC(F)(F)F)cc1)C1Cc2ccc(SC(C)(C)C(=O)O)cc2C1` (stereo not drawn) [Example 8, 2-Methyl-2-{2-[1-pentyl-3-(4-trifluoromethoxyphenyl)ureido]indan-5-ylsulfanyl}-2-methylpropionic acid], in assay [2], the “PPARδ FI” value was determined as 5.9. Besides, the “PPARγ FI” value in assay [3] is recorded as 1.9.

Consider `CCCCCN(C(=O)Nc1ccc(N(C)C)cc1)C1Cc2ccc(SC(C)(C)C(=O)O)cc2C1` (stereo not drawn) [Example 9, 2-{2-[3-(4-Dimethylaminophenyl)-1-pentylureido]indan-5-ylsulfanyl}-2-methylpropionic acid], for which, in assay [2], the “PPARδ FI” value stood at 1.0. Also, the “PPARγ FI” value in assay [3] was determined as 2.9.

For `CCCCCN(C(=O)Nc1ccc(C(C)C)cc1)C1Cc2ccc(SC(C)(C)C(=O)O)cc2C1` (stereo not drawn) [Example 10, 2-{2-[3-(4-Isopropylphenyl)-1-(pentyl)ureido]indan-5-ylsulfanyl}-2-methylpropionic acid], the midpoint of the response in assay [1], the EC50, lay at 0.165 µM. For the same compound, the “PPARγ FI” value in assay [3] is on record as 5.1.

In assay [1], `CCCCCN(C(=O)Nc1ccc(C(C)(C)C)cc1)C1Cc2ccc(SC(C)(C)C(=O)O)cc2C1` (stereo not drawn) [Example 11, 2-{2-[3-(4-tert-butylphenyl)-1-(pentyl)ureido]indan-5-ylsulfanyl}-2-methylpropionic acid] had a concentration giving a half-maximal response (EC50) of 0.173 µM. Further, the “PPARγ FI” value in assay [3] turned out to be 6.1.

As to `CCCCCCN(C(=O)Nc1ccc(OC(F)(F)F)cc1)C1Cc2ccc(SC(C)(C)C(=O)O)cc2C1` (stereo not drawn) [Example 14, 2-Methyl-2-{2-[1-hexyl-3-(4-trifluoromethoxyphenyl)ureido]indan-5-ylsulfanyl}propionic acid], in assay [2], the “PPARδ FI” value is given as 1.3. Moreover, in assay [3], the “PPARγ FI” value is 0.3.

By EC50 is commonly meant the midpoint of the concentration-response curve.
